# Reference: US12331068B2, “Compositions and methods for inhibiting CD73” (Peloton Therapeutics, Inc., priority 2018, dated 2025)
# Read-outs that look alike come from different tables or passages of the source.
# Legend:
# Human CD73 = target: T1, Human CD73 (Homo sapiens, UniProt P21589); assay: CD73 Enzyme Assay (EnzChek PNP/MESG kinetic readout of AMP hydrolysis); format: biochemical; settings: 0.25 nM hCD73, 25 μM AMP
# T1 construct: purchased R&D Systems; host or cells: CHO cells
# T1 sequence (P21589 27-549): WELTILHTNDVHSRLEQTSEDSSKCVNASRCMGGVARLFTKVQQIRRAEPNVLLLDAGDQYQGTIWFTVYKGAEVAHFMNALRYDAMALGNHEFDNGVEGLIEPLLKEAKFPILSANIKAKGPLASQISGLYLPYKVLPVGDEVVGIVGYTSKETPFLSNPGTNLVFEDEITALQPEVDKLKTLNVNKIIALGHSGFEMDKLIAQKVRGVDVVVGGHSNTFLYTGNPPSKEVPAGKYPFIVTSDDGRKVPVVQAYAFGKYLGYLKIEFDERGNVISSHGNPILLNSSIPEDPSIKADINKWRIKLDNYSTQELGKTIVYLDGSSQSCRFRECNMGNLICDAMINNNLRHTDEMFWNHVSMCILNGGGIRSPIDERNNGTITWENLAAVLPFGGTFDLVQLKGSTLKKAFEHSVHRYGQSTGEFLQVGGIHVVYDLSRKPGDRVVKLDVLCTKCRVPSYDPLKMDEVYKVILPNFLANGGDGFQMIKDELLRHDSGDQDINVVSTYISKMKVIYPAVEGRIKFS
# Procedure: A compound of the present disclosure (5 μL) was transferred to a 384-well assay plate. The compound was added in a 15 point, 3-fold serial dilution (300 μM to 0.0002 μM) in DMSO. […] The plate was immediately placed in a plate reader (Synergy 2 or Spark 10), and a reading was taken every minute for 10 to 20 minutes in a kinetic run at 360 nm. The linear portion of the curve was used to determine the observed rate (initial velocity). Low signal controls containing 100 μM adenosine 5′-(α,β-methylene) diphosphate and high signal controls containing no compound were measured for each plate.
# IC50 values were calculated using Dotmatics template equation for 4-parameter fit. Results are expressed as % inhibition using the following equation: […]
# [1] = target: T2, CD73 on U138 human neuroglioma cells (Homo sapiens, UniProt P21589); assay: CD73 Cell-Based Assay (inorganic phosphate from AMP, malachite green); settings: AMP substrate, 2 hours at 37° C.
# T2 construct: U138 cells were obtained from ATCC and cultured in DMEM with 10% FBS; host or cells: U138 human neuroglioma cells
# T2 sequence (P21589 27-549): T1 sequence (P21589 27-549)
# Procedure: U138 human neuroglioma cells were used in these experiments. U138 cells were obtained from ATCC and cultured in DMEM with 10% FBS. 2500 cells were seeded into 96-well plate with 100 μL of media the day before the experiment. […] After washing, 100 μL of buffer was added to each well, then 100 μL of a mixture of AMP substrate (200 μM) and diluted compound was added to each well. The cells were incubated at 37° C. (with 5% CO2) for 2 hours. 50 μL of supernatant was transferred to a 96-well assay plate and the concentration of inorganic phosphate was determined using malachite green reagent (R&D System; Cat: DY996).
# [2] = read-out: CD73 Enzyme Assay IC50
# [3] = read-out: CD73 Cell-Based assay IC50
IC50 (Human CD73; [2]),"IC50 [1, 3]",IC50 ([1]; read-out: IC50),SMILES,"IC50 (Human CD73; low signal control compound, read-out: IC50)"
< 10 nM,< 10 nM,–,"N#Cc1c(Cl)nc2c(ccn2[C@@H]2O[C@H](COCP(=O)(O)O)[C@@H](O)[C@H]2O)c1NC1CCCC1 [Compound 1, ((((2R,3S,4R,5R)-5-(6-chloro-5-cyano-4-(cyclopentylamino)-1H-pyrrolo[2,3-b]pyridin-1-yl)-3,4-dihydroxytetrahydrofuran-2-yl)methoxy)methyl)phosphonic acid]",–
10 to 100 nM,–,–,N#Cc1c(OCCO)nc2c(ccn2[C@@H]2O[C@H](COCP(=O)(O)O)[C@@H](O)[C@H]2O)c1NC1CCCC1 [Compound 2],–
< 10 nM,< 10 nM,–,"N#Cc1c(Cl)nc2c(ccn2[C@@H]2O[C@H](COP(=O)(O)CP(=O)(O)O)[C@@H](O)[C@H]2O)c1NC1CCCC1 [Compound 3, (((((2R,3S,4R,5R)-5-(6-chloro-5-cyano-4-(cyclopentylamino)-1H-pyrrolo[2,3-b]pyridin-1-yl)-3,4-dihydroxytetrahydrofuran-2-yl)methoxy)(hydroxy)phosphoryl)methyl)phosphonic acid]",–
< 10 nM,< 10 nM,–,N#Cc1c(Cl)nc2c(ccn2[C@@H]2O[C@H](COCP(=O)(O)O)[C@@H](O)[C@H]2O)c1N[C@H]1CCC(F)(F)C1 [Compound 4],–
< 10 nM,< 10 nM,–,N#Cc1c(Cl)nc2c(ccn2[C@@H]2O[C@H](CS(=O)(=O)CP(=O)(O)O)[C@@H](O)[C@H]2O)c1N[C@H]1CCC(F)(F)C1 [Compound 5],–
< 10 nM,< 10 nM,–,C[C@@H](Nc1c(C#N)c(Cl)nc2c1ccn2[C@@H]1O[C@H](COCP(=O)(O)O)[C@@H](O)[C@H]1O)c1ccc(F)cc1 [Compound 7],–
< 10 nM,< 10 nM,–,C[C@H](Nc1c(C#N)c(Cl)nc2c1ccn2[C@@H]1O[C@H](COCP(=O)(O)O)[C@@H](O)[C@H]1O)c1ccc(F)cc1 [Compound 8],–
< 10 nM,< 10 nM,–,N#Cc1c(Cl)nc2c(ccn2[C@@H]2O[C@H](COCP(=O)(O)O)[C@@H](O)[C@H]2O)c1NC1CCC1 [Compound 9],–
< 10 nM,< 10 nM,–,N#Cc1c(Cl)nc2c(ccn2[C@@H]2O[C@H](COCP(=O)(O)O)[C@@H](O)[C@H]2O)c1NC1CC(F)(F)C1 [Compound 10],–
< 10 nM,< 10 nM,–,N#Cc1c(Cl)nc2c(ccn2[C@@H]2O[C@H](COCP(=O)(O)O)[C@@H](O)[C@H]2O)c1N1CC2CCCC2C1 (stereo partly shown) [Compound 11],–
< 10 nM,< 10 nM,–,N#Cc1c(Cl)nc2c(ccn2[C@@H]2O[C@H](COCP(=O)(O)O)[C@@H](O)[C@H]2O)c1N1CC2CC2C1 (stereo partly shown) [Compound 12],–
< 10 nM,< 10 nM,–,"N#Cc1c(Cl)nc2c(ccn2[C@@H]2O[C@H](COCP(=O)(O)O)[C@@H](O)[C@H]2O)c1N1CCC(F)(F)C1 [Compound 13, ((((2R,3S,4R,5R)-5-(6-chloro-5-cyano-4-(3,3-difluoropyrrolidin-1-yl)-1H-pyrrolo[2,3-b]pyridin-1-yl)-3,4-dihydroxytetrahydrofuran-2-yl)methoxy)methyl)phosphonic acid]",–
< 10 nM,< 10 nM,–,"C[C@H](Nc1c(C#N)c(Cl)nc2c1ccn2[C@@H]1O[C@H](CS(=O)(=O)CP(=O)(O)O)[C@@H](O)[C@H]1O)c1ccc(F)cc1 [Compound 18, (((((2S,3S,4R,5R)-5-(6-chloro-5-cyano-4-(((S)-1-(4-fluorophenyl)ethyl)amino)-1H-pyrrolo[2,3-b]pyridin-1-yl)-3,4-dihydroxytetrahydrofuran-2-yl)methyl)sulfonyl)methyl)phosphonic acid]",–
< 10 nM,< 10 nM,–,N#Cc1c(Cl)nc2c(ccn2[C@@H]2O[C@H](CS(=O)(=O)CP(=O)(O)O)[C@@H](O)[C@H]2O)c1NC1CCC1 [Compound 19],–
< 10 nM,< 10 nM,–,N#Cc1c(Cl)nc2c(ccn2[C@@H]2O[C@H](CS(=O)(=O)CP(=O)(O)O)[C@@H](O)[C@H]2O)c1NC1CC(F)(F)C1 [Compound 20],–
< 10 nM,< 10 nM,–,N#Cc1c(Cl)nc2c(ccn2[C@@H]2O[C@H](CS(=O)(=O)CP(=O)(O)O)[C@@H](O)[C@H]2O)c1N1CC2CCCC2C1 (stereo partly shown) [Compound 21],–
< 10 nM,< 10 nM,–,N#Cc1c(Cl)nc2c(ccn2[C@@H]2O[C@H](CS(=O)(=O)CP(=O)(O)O)[C@@H](O)[C@H]2O)c1N1CC2CC2C1 (stereo partly shown) [Compound 22],–

IC50 (Human CD73; [2]),"IC50 [1, 3]",IC50 ([1]; read-out: IC50),SMILES,"IC50 (Human CD73; low signal control compound, read-out: IC50)"
< 10 nM,< 10 nM,0.1 nM,"N#Cc1c(Cl)nc2c(ccn2[C@@H]2O[C@H](CS(=O)(=O)CP(=O)(O)O)[C@@H](O)[C@H]2O)c1NC1CCCC1 [Compound 25, (((((2S,3S,4R,5R)-5-(6-chloro-5-cyano-4-(cyclopentylamino)-1H-pyrrolo[2,3-b]pyridin-1-yl)-3,4-dihydroxytetrahydrofuran-2-yl)methyl)sulfonyl)methyl)phosphonic acid]",–
< 10 nM,< 10 nM,–,N#Cc1c(Cl)nc2c(ccn2[C@@H]2O[C@H](COCP(=O)(O)O)[C@@H](O)[C@H]2O)c1NC1CC2CC2C1 (stereo partly shown) [Compound 26],–
< 10 nM,< 10 nM,–,"C[C@@H](Nc1c(C#N)c(Cl)nc2c1ccn2[C@@H]1O[C@H](CS(=O)(=O)CP(=O)(O)O)[C@@H](O)[C@H]1O)c1ccc(F)cc1 [Compound 27, (((((2S,3S,4R,5R)-5-(6-chloro-5-cyano-4-(((R)-1-(4-fluorophenyl)ethyl)amino)-1H-pyrrolo[2,3-b]pyridin-1-yl)-3,4-dihydroxytetrahydrofuran-2-yl)methyl)sulfonyl)methyl)phosphonic acid]",–
< 10 nM,< 10 nM,–,N#Cc1c(Cl)nc2c(ccn2[C@@H]2O[C@H](COP(=O)(O)CP(=O)(O)O)[C@@H](O)[C@H]2O)c1NC1CC2CC2C1 (stereo partly shown) [Compound 28],–
< 10 nM,< 10 nM,–,N#Cc1c(Cl)nc2c(ccn2[C@@H]2O[C@H](COP(=O)(O)CP(=O)(O)O)[C@@H](O)[C@H]2O)c1N1CC2CC2C1 (stereo partly shown) [Compound 29],–
10 to 100 nM,–,–,CNC(=O)c1c(Cl)nc2c(ccn2C2O[C@H](COCP(=O)(O)O)[C@@H](O)[C@H]2O)c1NC1CCCC1 (stereo partly shown) [Compound 40],–
> 100 nM,–,–,N#Cc1c(OCCO)nc2c(ccn2[C@@H]2O[C@H](COCP(=O)(O)O)[C@@H](O)[C@H]2O)c1N1CC2CCCC2C1 (stereo partly shown) [Compound 52],–
10 to 100 nM,–,–,N#Cc1c(Cl)nc2c(ccn2[C@@H]2O[C@H](COCP(=O)(O)O)[C@@H](O)[C@@H]2F)c1N1CCC(F)(F)C1 [Compound 98],–
> 100 nM,–,–,"N#Cc1c(Cl)nc2c(cnn2[C@@H]2O[C@H](COCP(=O)(O)O)[C@@H](O)[C@@H]2F)c1N1CCC(F)(F)C1 [Compound 99, ((((2R,3R,4S,5R)-5-(6-chloro-5-cyano-4-(3,3-difluoropyrrolidin-1-yl)-1H-pyrazolo[3,4-b]pyridin-1-yl)-4-fluoro-3-hydroxytetrahydrofuran-2-yl)methoxy)methyl)phosphonic acid]",–
10 to 100 nM,–,–,N#Cc1c(Cl)nc2c(ncn2[C@@H]2O[C@H](COCP(=O)(O)O)[C@@H](O)[C@@H]2F)c1N1CCC(F)(F)C1 [Compound 100],–
> 100 nM,–,–,N#Cc1nc2c(ccn2[C@@H]2O[C@H](CS(=O)(=O)CP(=O)(O)O)[C@@H](O)[C@@H]2F)c(N)c1C#N [Compound 189],–
< 10 nM,–,–,C[C@@H](Nc1c(C#N)c(Cl)nc2c1cnn2[C@@H]1O[C@H](COP(=O)(O)CP(=O)(O)O)[C@@H](O)[C@H]1O)c1ccc(F)cn1 [Compound 258],–
< 10 nM,–,–,C[C@H](Nc1c(C#N)c(Cl)nc2c1cnn2[C@@H]1O[C@H](COP(=O)(O)CP(=O)(O)O)[C@@H](O)[C@H]1O)c1ccccc1F [Compound 260],–
< 10 nM,–,–,C[C@@H](Nc1c(C#N)c(Cl)nc2c1cnn2[C@@H]1O[C@H](COP(=O)(O)CP(=O)(O)O)[C@@H](O)[C@H]1O)c1ccc(F)cc1 [Compound 270],–
< 10 nM,–,–,C[C@H](Nc1c(C#N)c(Cl)nc2c1cnn2[C@@H]1O[C@H](COP(=O)(O)CP(=O)(O)O)[C@@H](O)[C@H]1O)c1ccc(F)cn1 [Compound 271],–
–,–,–,"Nc1ncnc2c1ncn2[C@@H]1O[C@H](COP(=O)(O)CP(=O)(O)O)[C@@H](O)[C@H]1O [adenosine 5′-(α,β-methylene) diphosphate, reference compound]",50 nM
